Values quoted from earlier work in patent publication US10610528B2, “Solid oral film dosage forms and methods for making same” (Intelgenx Corp., priority 2009, dated 2020).

- Solubility in water: practically insoluble in water
SMILES: CN1CC(=O)N2[C@H](c3ccc4c(c3)OCO4)c3[nH]c4ccccc4c3C[C@@H]2C1=O [Tadalafil]
